Reference: ChEMBL document CHEMBL5390322, “Discovery of 5-Azaquinoxaline Derivatives as Potent and Orally Bioavailable Allosteric SHP2 Inhibitors” (ACS Med Chem Lett, 2023)
In brackets after ≈: the same amount, converted by molar mass.

Test system: not listed separately
Assay: Metabolic stability in human liver microsome assessed as intrinsic clearance at […] preincubated for 5 mins followed by NADPH addition and measured after 20 mins by LC-MS analysis
Format: ADME
Settings: liver microsomes, dose 2.5 µM, time 25 min, read-out: CLH

SMILES | CLint scaled at […] [mL/min/kg]
CNC1(C)CCN(c2cnc3nc(Sc4ccnc(N)c4Cl)ccc3n2)CC1 | 3
C[C@@H]1OCC2(CCN(c3cnc4nc(Sc5ccnc(N)c5Cl)ccc4n3)CC2)[C@@H]1N | 3
Nc1nccc(Sc2ccc3nc(N4[C@H]5CC[C@H]4CC(N)C5)cnc3n2)c1Cl (some centres undefined) | 3
Nc1nccc(Sc2ccc3nc(N4CCC5(CC4)Cc4ncccc4[C@H]5N)cnc3n2)c1Cl | 9

Test system: not listed separately
Assay: Cmax in CD-1 mouse at 10 mg/kg, po measured upto 24 hrs by LC-MS/MS method
Format: ADME, organism-based
Parameters: dose 10 mg/kg, time < 24 hrs, route po
Settings: in vivo

SMILES | Cmax [ng/mL]
C[C@@H]1OCC2(CCN(c3cnc4nc(Sc5ccnc(N)c5Cl)ccc4n3)CC2)[C@@H]1N | 533
Nc1nccc(Sc2ccc3nc(N4CCC5(CC4)Cc4ncccc4[C@H]5N)cnc3n2)c1Cl | 649

Target: T1, Tyrosine-protein phosphatase non-receptor type 11 (Homo sapiens, UniProt Q06124)
T1 sequence (Q06124 whole entry): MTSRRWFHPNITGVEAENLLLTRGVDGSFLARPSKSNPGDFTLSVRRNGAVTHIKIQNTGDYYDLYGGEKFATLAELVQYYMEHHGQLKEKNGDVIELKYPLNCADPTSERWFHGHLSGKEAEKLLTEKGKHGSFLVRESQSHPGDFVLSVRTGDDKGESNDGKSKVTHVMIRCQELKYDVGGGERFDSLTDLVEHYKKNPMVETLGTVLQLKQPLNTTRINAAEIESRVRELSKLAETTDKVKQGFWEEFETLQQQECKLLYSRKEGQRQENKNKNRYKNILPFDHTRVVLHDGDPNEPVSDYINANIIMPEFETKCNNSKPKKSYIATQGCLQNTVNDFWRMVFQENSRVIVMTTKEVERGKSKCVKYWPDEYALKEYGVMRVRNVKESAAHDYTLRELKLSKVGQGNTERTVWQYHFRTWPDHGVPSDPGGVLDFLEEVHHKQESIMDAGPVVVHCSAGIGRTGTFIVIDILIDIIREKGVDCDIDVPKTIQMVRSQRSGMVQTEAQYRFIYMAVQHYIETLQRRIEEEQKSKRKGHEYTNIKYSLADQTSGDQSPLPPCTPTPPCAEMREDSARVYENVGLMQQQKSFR
Assay: Allosteric inhibition of recombinant full length 6His-tagged SHP2 (2 to 527 residues) (unknown origin) expressed in Escherichia coli using DiFMUP as substrate incubated for 15 mins by microplate reader analysis
Settings: not given

SMILES | IC50 [nM]
C[C@@H]1OCC2(CCN(c3cnc4nc(Sc5ccnc(N)c5Cl)ccc4n3)CC2)[C@@H]1N | 72

Test system: not listed separately
Assay: AUC(0 to infinity) in CD-1 mouse at 10 mg/kg, po measured upto 24 hrs by LC-MS/MS method
Format: ADME, organism-based
Parameters: time < 24 hrs, dose 10 mg/kg, route po
Settings: in vivo

SMILES | AUC(0-inf) [ng·h/mL]
Nc1nccc(Sc2ccc3nc(N4CCC5(CC4)Cc4ncccc4[C@H]5N)cnc3n2)c1Cl | 5780

Test system: not listed separately
Assay: AUClast in CD-1 mouse at 10 mg/kg, po measured upto 24 hrs by LC-MS/MS method
Format: ADME, organism-based
Parameters: time < 24 hrs, dose 10 mg/kg, route po
Settings: in vivo

SMILES | AUC(0-t) at 24 h [ng·h/mL]
C[C@@H]1OCC2(CCN(c3cnc4nc(Sc5ccnc(N)c5Cl)ccc4n3)CC2)[C@@H]1N | 2820

Test system: not listed separately
Assay: Metabolic stability in human hepatocyte assessed as intrinsic clearance incubated for 1 to 2 hrs by LC-MS analysis
Format: ADME, cell-based
Settings: hepatocytes, time 1-2 hrs, read-out: CLH

SMILES | CLint scaled at 10000 µM [mL/min/kg]
CNC1(C)CCN(c2cnc3nc(Sc4ccnc(N)c4Cl)ccc3n2)CC1 | 5
C[C@@H]1OCC2(CCN(c3cnc4nc(Sc5ccnc(N)c5Cl)ccc4n3)CC2)[C@@H]1N | 5
Nc1nccc(Sc2ccc3nc(N4[C@H]5CC[C@H]4CC(N)C5)cnc3n2)c1Cl (some centres undefined) | 2
Nc1nccc(Sc2ccc3nc(N4CCC5(CC4)Cc4ncccc4[C@H]5N)cnc3n2)c1Cl | 11

Test system: MIA PaCa-2
Assay: Antitumor activity against human MIA PaCa-2 cells harboring KRAS G12C mutant xenografted in athymic nude Foxn1nu mouse assessed as tumor growth inhibition at 100 mg/kg,po administrated for 28 days and measured every 3 to 4 days relative to control
Format: functional
Settings: time 28 day

SMILES | TGI [%]
Nc1nccc(Sc2ccc3nc(N4CCC5(CC4)Cc4ncccc4[C@H]5N)cnc3n2)c1Cl | 75

Test system: not listed separately
Assay: Tmax in CD-1 mouse at 10 mg/kg, po measured upto 24 hrs by LC-MS/MS method
Format: ADME, organism-based
Settings: in vivo

SMILES | Tmax [h]
C[C@@H]1OCC2(CCN(c3cnc4nc(Sc5ccnc(N)c5Cl)ccc4n3)CC2)[C@@H]1N | 2
Nc1nccc(Sc2ccc3nc(N4CCC5(CC4)Cc4ncccc4[C@H]5N)cnc3n2)c1Cl | 4

Test system: not listed separately
Assay: Toxicity in athymic nude Foxn1nu mouse xenografted with human MIA PaCa-2 cells harboring KRAS G12C mutant assessed as body weight loss at 30 to 100 mg/kg,po administrated for 28 days and measured every 3 to 4 days relative to control
Format: organism-based
Settings: in vivo, 672 h, dose 30-100 mg/kg, time 28 day

SMILES | Activity [%]
Nc1nccc(Sc2ccc3nc(N4CCC5(CC4)Cc4ncccc4[C@H]5N)cnc3n2)c1Cl | < 5

Test system: not listed separately
Assay: Solubility of the compound in FaSSIF at 1 mg/ml incubated for 24 hrs by LC-MS/MS analysis
Format: physicochemical
Settings: not given

SMILES | solubility at 24 h [µg/mL]
CNC1(C)CCN(c2cnc3nc(Sc4ccnc(N)c4Cl)ccc3n2)CC1 | 1000 (≈ 2400 µM)
C[C@@H]1OCC2(CCN(c3cnc4nc(Sc5ccnc(N)c5Cl)ccc4n3)CC2)[C@@H]1N | 894 (≈ 1950 µM)
Nc1nccc(Sc2ccc3nc(N4[C@H]5CC[C@H]4CC(N)C5)cnc3n2)c1Cl (some centres undefined) | 1000 (≈ 2420 µM)
Nc1nccc(Sc2ccc3nc(N4CCC5(CC4)Cc4ncccc4[C@H]5N)cnc3n2)c1Cl | 271 (≈ 552 µM)

Test system: MIA PaCa-2
Assay: Antitumor activity against human MIA PaCa-2 cells harboring KRAS G12C mutant xenografted in athymic nude Foxn1nu mouse assessed as tumor growth inhibition at 30 mg/kg,po administrated for 28 days and measured every 3 to 4 days relative to control
Format: functional
Settings: time 28 day

SMILES | TGI [%]
Nc1nccc(Sc2ccc3nc(N4CCC5(CC4)Cc4ncccc4[C@H]5N)cnc3n2)c1Cl | 38

Test system: not listed separately
Assay: Clearance in CD-1 mouse at 1 mg/kg, iv measured upto 8 hrs by LC-MS/MS method
Format: ADME, organism-based
Settings: in vivo

SMILES | clearance [mL/min/kg]
C[C@@H]1OCC2(CCN(c3cnc4nc(Sc5ccnc(N)c5Cl)ccc4n3)CC2)[C@@H]1N | 34.3
Nc1nccc(Sc2ccc3nc(N4CCC5(CC4)Cc4ncccc4[C@H]5N)cnc3n2)c1Cl | 19.2

Test system: not listed separately
Assay: Metabolic stability in mouse liver microsome assessed as intrinsic clearance at […] preincubated for 5 mins followed by NADPH addition and measured after 20 mins by LC-MS analysis
Format: ADME
Settings: liver microsomes, dose 2.5 µM, time 25 min, read-out: CLH

SMILES | CLint scaled at […] [mL/min/kg]
CNC1(C)CCN(c2cnc3nc(Sc4ccnc(N)c4Cl)ccc3n2)CC1 | 20
C[C@@H]1OCC2(CCN(c3cnc4nc(Sc5ccnc(N)c5Cl)ccc4n3)CC2)[C@@H]1N | 24
Nc1nccc(Sc2ccc3nc(N4[C@H]5CC[C@H]4CC(N)C5)cnc3n2)c1Cl (some centres undefined) | 18
Nc1nccc(Sc2ccc3nc(N4CCC5(CC4)Cc4ncccc4[C@H]5N)cnc3n2)c1Cl | 35

Target: T2, Mitogen-activated protein kinase; ERK1/ERK2 (Homo sapiens, UniProt P27361+P28482)
Settings: KYSE520, time 1.0 hrs

T2 sequence (P27361 whole entry, looked up): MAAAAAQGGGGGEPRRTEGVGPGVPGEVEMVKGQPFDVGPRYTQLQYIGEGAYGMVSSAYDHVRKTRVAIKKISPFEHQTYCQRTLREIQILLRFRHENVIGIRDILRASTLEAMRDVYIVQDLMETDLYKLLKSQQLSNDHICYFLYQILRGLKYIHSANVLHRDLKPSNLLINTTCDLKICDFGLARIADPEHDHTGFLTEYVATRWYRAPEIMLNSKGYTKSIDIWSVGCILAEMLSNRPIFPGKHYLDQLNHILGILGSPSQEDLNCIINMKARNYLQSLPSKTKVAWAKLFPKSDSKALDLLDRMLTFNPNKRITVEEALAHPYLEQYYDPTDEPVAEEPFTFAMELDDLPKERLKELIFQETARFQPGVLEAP
T2 sequence (P28482 whole entry, looked up): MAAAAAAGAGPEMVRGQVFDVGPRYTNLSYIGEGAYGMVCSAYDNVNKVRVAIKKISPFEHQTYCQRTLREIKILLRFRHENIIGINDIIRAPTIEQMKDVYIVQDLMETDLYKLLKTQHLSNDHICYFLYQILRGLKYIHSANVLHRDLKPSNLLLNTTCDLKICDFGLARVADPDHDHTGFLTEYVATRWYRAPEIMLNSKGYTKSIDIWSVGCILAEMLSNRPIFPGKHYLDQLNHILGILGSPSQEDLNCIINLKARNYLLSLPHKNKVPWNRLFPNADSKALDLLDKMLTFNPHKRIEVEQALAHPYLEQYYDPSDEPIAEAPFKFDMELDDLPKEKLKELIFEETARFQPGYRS

SMILES | fIC50 [µg/mL] | fIC90 [µg/mL]
C[C@@H]1OCC2(CCN(c3cnc4nc(Sc5ccnc(N)c5Cl)ccc4n3)CC2)[C@@H]1N | 0.244 | 2.2
Nc1nccc(Sc2ccc3nc(N4CCC5(CC4)Cc4ncccc4[C@H]5N)cnc3n2)c1Cl | 0.06 | 0.535

Target: T2, Mitogen-activated protein kinase; ERK1/ERK2
Settings: KYSE520, time 1.0 hrs
Remark: another data set of the same source

SMILES | fIC50 [µg/mL] | fIC90 [µg/mL]
C[C@@H]1OCC2(CCN(c3cnc4nc(Sc5ccnc(N)c5Cl)ccc4n3)CC2)[C@@H]1N | 0.244 | 2.2
Nc1nccc(Sc2ccc3nc(N4CCC5(CC4)Cc4ncccc4[C@H]5N)cnc3n2)c1Cl | 0.06 | 0.535

Test system: not listed separately
Assay: Metabolic stability in mouse hepatocyte assessed as intrinsic clearance incubated for 1 to 2 hrs by LC-MS analysis
Format: ADME, cell-based
Settings: hepatocytes, time 1-2 hrs, read-out: CLH

SMILES | CLint scaled [mL/min/kg]
CNC1(C)CCN(c2cnc3nc(Sc4ccnc(N)c4Cl)ccc3n2)CC1 | 16
C[C@@H]1OCC2(CCN(c3cnc4nc(Sc5ccnc(N)c5Cl)ccc4n3)CC2)[C@@H]1N | 16
Nc1nccc(Sc2ccc3nc(N4[C@H]5CC[C@H]4CC(N)C5)cnc3n2)c1Cl (some centres undefined) | 17
Nc1nccc(Sc2ccc3nc(N4CCC5(CC4)Cc4ncccc4[C@H]5N)cnc3n2)c1Cl | 28

Test system: not listed separately
Assay: Oral bioavailability in CD-1 mouse at 10 mg/kg measured upto 24 hrs by LC-MS/MS method
Format: ADME, organism-based
Settings: in vivo

SMILES | bioavailability [%]
C[C@@H]1OCC2(CCN(c3cnc4nc(Sc5ccnc(N)c5Cl)ccc4n3)CC2)[C@@H]1N | 58.1
Nc1nccc(Sc2ccc3nc(N4CCC5(CC4)Cc4ncccc4[C@H]5N)cnc3n2)c1Cl | 66.5

Target: T2, Mitogen-activated protein kinase; ERK1/ERK2
Assay: Inhibition of ERK1/2 phosphorylation at Thr202/Tyr204 residues in human KYSE520 cells incubated for 1 hrs by Western blot analysis
Format: cell-based
Settings: not given

SMILES | IC50 [nM]
CNC1(C)CCN(c2cnc3nc(Sc4ccnc(N)c4Cl)ccc3n2)CC1 | 202
C[C@@H]1OCC2(CCN(c3cnc4nc(Sc5ccnc(N)c5Cl)ccc4n3)CC2)[C@@H]1N | 58
Nc1nccc(Sc2ccc3nc(N4[C@H]5CC[C@H]4CC(N)C5)cnc3n2)c1Cl (some centres undefined) | 28
Nc1nccc(Sc2ccc3nc(N4CCC5(CC4)Cc4ncccc4[C@H]5N)cnc3n2)c1Cl | 5

Test system: not listed separately
Assay: Permeability of compound from apical to basolateral side in LLC-PK1 cells incubated for 2 hrs by LC-MS/MS analysis
Format: ADME, cell-based, Sus scrofa
Settings: pig, read-out: permeability

SMILES | Papp A→B at 2 h [×10⁻⁶ cm/s]
CNC1(C)CCN(c2cnc3nc(Sc4ccnc(N)c4Cl)ccc3n2)CC1 | 12
C[C@@H]1OCC2(CCN(c3cnc4nc(Sc5ccnc(N)c5Cl)ccc4n3)CC2)[C@@H]1N | 13
Nc1nccc(Sc2ccc3nc(N4[C@H]5CC[C@H]4CC(N)C5)cnc3n2)c1Cl (some centres undefined) | 3
Nc1nccc(Sc2ccc3nc(N4CCC5(CC4)Cc4ncccc4[C@H]5N)cnc3n2)c1Cl | 11

Test system: not listed separately
Assay: Half life in CD-1 mouse at 1 mg/kg, iv measured upto 8 hrs by LC-MS/MS method
Format: ADME, organism-based
Settings: in vivo

SMILES | half-life [h]
C[C@@H]1OCC2(CCN(c3cnc4nc(Sc5ccnc(N)c5Cl)ccc4n3)CC2)[C@@H]1N | 1.48
Nc1nccc(Sc2ccc3nc(N4CCC5(CC4)Cc4ncccc4[C@H]5N)cnc3n2)c1Cl | 1.44

Test system: not listed separately
Assay: Volume of distribution at steady state in CD-1 mouse at 1 mg/kg, iv measured upto 8 hrs by LC-MS/MS method
Format: ADME, organism-based
Settings: in vivo, read-out: Vdss

SMILES | Vd [L/kg]
C[C@@H]1OCC2(CCN(c3cnc4nc(Sc5ccnc(N)c5Cl)ccc4n3)CC2)[C@@H]1N | 3.46
Nc1nccc(Sc2ccc3nc(N4CCC5(CC4)Cc4ncccc4[C@H]5N)cnc3n2)c1Cl | 1.74
